Source: patent publication US8513409B2, “Introverted CB[n] compounds” (University of Maryland, priority 2005, dated 2013)
One block for each compound: values may come before it.

Legend:
[1] = 1H NMR competition of CB[6] and i-CB[6] (1:1) for guest 1; type: binding; details: slight excess of 1 added to CB[6] and i-CB[6] (1:1)
Experimental: (§1) FIG. 6 illustrates ^1HNMR spectra recorded for: a)) i-CB[6], CB[6] and 1 in a ratio of 1:1:2 (0.5M NaCl), and b) i-CB[7], 1 and 2 in a ratio of 1:1:1 (500 MHz, D2O), RT).
(§2) Because of their smaller cavities and more open portals i-CB[6] and i-CB[7] bind most guest molecules less tightly than their CB[n] counterparts do. For example, when a light excess of 1 is added to a solution containing CB[6] and i-CB[6] Alkyl ammonium ions such as 2 are known to bind tightly to CB[6] with values of Ka in the μM range. In contrast, 2 bind less strongly to i-CB[6] […] Similarly, i-CB[7] retains the ability to bind to guests commonly bound to CB[7]1,8 (e.g. 1.2, and (ferrocenemethyl)trimethylammonium ion (3)) but with lower affinity and higher kinetic liability. The association constants (Ka) for the guests 1, 2, and 3 with i-CB[7] measured by isothermal titration calorimetry (ITC) are (9±1)×10^6 M^−1, (8.8±0.9)×10^5 M^−1, and (2.2±0.1)×10^6 M^−1, respectively, which are 2 to 6 order of magnitude lower than those with CB[7].

[2] = Solubility of CB[n] in water, aqueous MeOH, HCl and Na2SO4 solutions; type: physicochemical; details: for solubility in 50% aqueous MeOH solution (v/v): 50% aqueous MeOH (v/v)
Experimental: CB[5]. […] By washing the crude solids repeatedly with large volumes of water a mixture of CB[5] and CB[7] was isolated. […] The solubility of CB[7] is less than 4 mg/mL in this solution. By extracting the solid mixture of CB[5] and CB[7] with 50% aq. MeOH CB[5] is separated from CB[7].
CB[8]. […] By washing the crude mixture of CB[6], CB[8], CB[5]@CB[10], introverted CB[6], and CB[8] with 3 M HCl CB[8] is isolated as an insoluble solid.
Introverted CB[6]. […] Na2SO4 which allows it to be isolated as an insoluble solid by washing and filtration.
Subsequent purification. The separation of each component (CB[5], CB[6], CB[7], CB[8], and iCB[6]) from Crop 1 and Crop 2 was enabled due to their differential solubility in HCl solutions. • CB[5] and CB[7]. […] By washing the crude mixture of CB[6], Cb[8], and iCB[6] with 3.5 M HC1 it is possible to isolate Cb[8] as an insoluble solid. • iCB[6] and CB[6]. CB[6] and iCB[6] were separated by fractional crystallization from different concentration HC1 solutions. For example, the initial CB[6]/iCB[6] mixture was recrystallized from a minimum volume of conc. HC1. The filtrate is enriched in iCB[n]; adding the filtrate to MeOH gives the precipitate which is filtered and dried. The solid now enriched in iCB[6] is recrystallized from 17.5% HC1 which gives CB[6] as a solid and filtrate further enriched in iCB[6]. In this manner, the ratio of iCB[6];CB[6] is raised to ≈80:20. At this point, the mixture is dissolved in a minimum of conc. HC1. To this solution is added enough H2N(CH2)6NH2 to complex all of the CB[6] (≈25%). This solution is then diluted 5-fold with H20. The precipitate is isolated by centrifugation and washed several times with H2O which yields iCB[6] as a white solid in 2% overall yield.

[3] = conc. HCl 100° C., reported by Day and co-workers; cited from earlier work
[4] = Isothermal titration calorimetry of i-CB[7] with guest 1; type: binding; details: ITC, water, 30° C.
Experimental: as §2
(§3) General. […] Melting points were measured on a Meltemp apparatus in open capillary tubes and are uncorrected. IR spectra were recorded on a Nicolet Magna or on a Perkin Elmer Spectrum GX FT-IR spectrophotometers as KBr pellets and are reported in cm^−1. NMR spectra were measured on a Bruker AM400 or on a Bruker DRX500 spectrometers operating at 400 or 500 MHz for ^1H and 100 or 125 MHz for ^13C. […] The formation constants for the inclusion of several guests in iCB[7] were determined by isothermal titration calorimetry using a VP-ITC instrument from MicroCal. […]

[5] = Isothermal titration calorimetry of i-CB[7] with guest 2; type: binding; details: ITC, water, 30° C.
Experimental: as §2, §3

[6] = Isothermal titration calorimetry of i-CB[7] with guest 3; type: binding; details: ITC, water, 30° C.
Experimental: FIG. 23 is a thermogram (top) and binding isotherm (bottom) of (ferrocenemethyl) trimethyl ammonium in complexing with i-CB[7] at 303K.
Because of their smaller cavities and more open portals i-CB[6] and i-CB[7] bind most guest molecules less tightly than their CB[n] counterparts do. For example, when a light excess of 1 is added to a solution containing CB[6] and i-CB[6] Alkyl ammonium ions such as 2 are known to bind tightly to CB[6] with values of Ka in the μM range. In contrast, 2 bind less strongly to i-CB[6] […] The association constants (Ka) for the guests 1, 2, and 3 with i-CB[7] measured by isothermal titration calorimetry (ITC) are (9±1)×10^6 M^−1, (8.8±0.9)×10^5 M^−1, and (2.2±0.1)×10^6 M^−1, respectively, which are 2 to 6 order of magnitude lower than those with CB[7].
as §3

[7] = 1H NMR competition of guests 1 and 2 for i-CB[7]; type: binding; details: 1 and 2 in ratio 1:1:1
Source text: as §1
For example, i-CB[7] binds aromatic guest 1 more strongly than linear aliphatic guest 2. […] Thus, the inverted glycoluril unit modulates guest binding affinity and rates of dissociation, both of which are of critical importance in the creation of CB[n] based molecular machines.

[8] = Stability of CB[n] and i-CB[n] on heating in acid (product resubmission); type: physicochemical; details: purified compound heated in conc. DCl
Source text: The fact that the isomerization of methylene bridged glycoluril dimmers follows mechanism 3 is not only useful in the synthesis of our compounds, but is important for the tailored synthesis of CB[n] and its derivatives. For example, Day and co-workers have recently shown that heating purified CB[8] in conc. […] (Scheme 3). In contrast, pure CB[5], CB[6], and CB[7] are stable under these conditions. […] This type of reaction would likely follow a pathway related to mechanism 1. […] In aqueous acid, it is likely that H2O can compete with the internal N and O nucleophiles of mechanism 3 for the capture of 19 (Scheme 2), effectively forcing fragmentation of the methylene bridges by a variation of mechanism 1. In the absence of competing nucleophiles, under anhydrous acidic conditions, CB[n] (n>8) and derivatives display enhanced stability. This facilitates the preparation of higher CB[n] compounds in a controllable manner when using anhydrous acidic conditions where water-sensitive functional groups are present. If such groups are not present acidic aqueous conditions may be used.
By “anhydrous acidic conditions,” we mean that in initial attempts “standard conditions” (ClCH2CH2Cl, anh. PTSA, reflux) are used, and if solubility problems occur then neat anhydrous PTSA (m.p. 38° C.) and/or CH3SO3H may be used. Based on results, CB[8] is stable to these conditions as depicted in Scheme 3. […]

solubility in 3 M HCl solution ([2]; 3 M HCl): appreciable solubility
solubility in 3.5 M HCl solution ([2]; 3.5 M HCl): appreciable solubility
Compound: O=C1N2CN3C(=O)N4CN5C(=O)N6CN7C(=O)N8CN9C(=O)N%10CN%11C(=O)N%12CN1C1C2N2CN%13C(=O)N(CN%14C(=O)N(CN%15C(=O)N(CN%16C(=O)N(CN%17C(=O)N(CN1C2=O)C%12C%11%17)C%10C9%16)C8C7%15)C6C5%14)C4C3%13 (stereo not drawn) [CB[6]]
share of host that forms a complex with guest 1 [1]: almost all
stability on heating in conc. HCl [3]: stable

Compound: i-CB[7]
association constant (Ka) for guest 1 [4]: (9±1)×10^6 M^−1
association constant (Ka) for guest 2 [5]: (8.8±0.9)×10^5 M^−1
association constant (Ka) for guest 3 [6]: (2.2±0.1)×10^6 M^−1
guest preference in presence of 1 equiv 1 and 2 [7]: the majority of i-CB[7] forms a complex with 1
outcome of heating in conc. DCl [8]: a 4:1 mixture of CB[6], and CB[7] was obtained

solubility in 50% aqueous MeOH solution (v/v) [2]: less than 4 mg/mL
solubility in water [2]: moderate solubility
Compound: O=C1N2CN3C(=O)N4CN5C(=O)N6CN7C(=O)N8CN9C(=O)N%10CN%11C(=O)N%12CN%13C(=O)N%14CN1C1C2N2CN%15C(=O)N(CN%16C(=O)N(CN%17C(=O)N(CN%18C(=O)N(CN%19C(=O)N(CN%20C(=O)N(CN1C2=O)C%14C%13%20)C%12C%11%19)C%10C9%18)C8C7%17)C6C5%16)C4C3%15 (stereo not drawn) [CB[7]]
stability on heating in conc. HCl [3]: stable

solubility in 50% aqueous MeOH solution (v/v) [2]: about 33 mg/mL
solubility in water [2]: moderate solubility
Compound: O=C1N2CN3C(=O)N4CN5C(=O)N6CN7C(=O)N8CN9C(=O)N%10CN1C1C2N2CN%11C(=O)N(CN%12C(=O)N(CN%13C(=O)N(CN%14C(=O)N(CN1C2=O)C%10C9%14)C8C7%13)C6C5%12)C4C3%11 (stereo not drawn) [CB[5]]
stability on heating in conc. HCl [3]: stable
